Source: ChEMBL document CHEMBL1201862, “PubChem BioAssay data set” (2004)
Active and inactive are the calls of the source.

Experiments:
[1] = biological target: T1, Mannose-6-phosphate isomerase (Homo sapiens, UniProt P34949); experiment: human PMI inhibitors, high substrate, primary screen, biochemical, fluorescence intensity, high mannose 6-phosphate (AID 1220)
T1 sequence (P34949 whole entry): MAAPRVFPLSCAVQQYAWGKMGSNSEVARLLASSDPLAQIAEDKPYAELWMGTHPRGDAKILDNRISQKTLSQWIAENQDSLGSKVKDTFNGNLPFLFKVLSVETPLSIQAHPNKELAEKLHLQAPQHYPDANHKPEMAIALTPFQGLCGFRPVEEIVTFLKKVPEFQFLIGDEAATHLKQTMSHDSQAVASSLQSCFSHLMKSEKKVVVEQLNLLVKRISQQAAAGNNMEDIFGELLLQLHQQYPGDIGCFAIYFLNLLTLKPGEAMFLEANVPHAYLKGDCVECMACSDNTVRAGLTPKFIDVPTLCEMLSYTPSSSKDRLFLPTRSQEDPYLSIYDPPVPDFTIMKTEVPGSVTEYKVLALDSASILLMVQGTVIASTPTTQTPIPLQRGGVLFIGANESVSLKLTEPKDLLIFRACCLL

SUMO-activating enzyme = SUMO-activating enzyme (Homo sapiens, UniProt Q9UBT2); experiment: SUMOylation inhibitor hit validation, confirmation, SUMOylation inhibitor project, biochemical, AlphaScreen (AID 2018); type: functional
INS1 = experiment: beta cell apoptosis inhibitors, cytokine rescue, dose response, luminescence, retest (AID 449756); type: functional, cell-based; conditions: Rattus norvegicus;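 further: cell death triggered by IL-1 beta plus TNF-alpha plus IFN-gamma mixture; protective hits raise ATP signal compared with cytokine alone wells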
[2] = biological target: T2, COUP transcription factor 2 (Homo sapiens, UniProt P24468); experiment: Luminescence-based cell-based high throughput dose response assay to identify inhibitors of COUP-TFII (NR2F2).; type: functional;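 further: HEK293 cells transiently cotransfected with COUP-TFII expression vector and reporter; luciferase reporter luminescence driven by COUP-TFII from the pX2-168 reporter plasmid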
T2 sequence (P24468 whole entry): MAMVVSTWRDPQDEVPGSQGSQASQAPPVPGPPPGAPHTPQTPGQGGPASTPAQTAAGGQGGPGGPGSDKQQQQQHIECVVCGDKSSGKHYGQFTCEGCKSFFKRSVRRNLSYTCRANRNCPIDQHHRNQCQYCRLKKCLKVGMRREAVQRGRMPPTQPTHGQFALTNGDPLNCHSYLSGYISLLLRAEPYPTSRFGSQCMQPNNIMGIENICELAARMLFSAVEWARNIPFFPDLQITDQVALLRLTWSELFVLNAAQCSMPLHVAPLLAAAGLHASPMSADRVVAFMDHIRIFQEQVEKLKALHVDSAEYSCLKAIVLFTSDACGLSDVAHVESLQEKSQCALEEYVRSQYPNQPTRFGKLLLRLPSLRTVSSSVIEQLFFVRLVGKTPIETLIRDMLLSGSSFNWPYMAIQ

[3] = cytotoxicity in MIN6 insulinoma cells, dose response, cytotoxicity control, cell-based, mouse insulinoma (AID 2122); type: functional;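 further: confirmatory high-throughput counterscreen run to flag cytotoxic compounds; mouse MIN-6 beta cells carrying an insulin promoter eGFP reporter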
[4] = HepG2 cell cytotoxicity, dose response, cytotoxicity control for Shn3 inhibitor project, CellTiter-Glo, cherry-picked (AID 624134); type: functional, cell-based
[5] = insulin promoter down-regulators in MIN6 cells, imaging, high-content screening, mouse beta cells (AID 1628); type: functional
[6] = cytotoxicity in HEK-293T cells, dose response, cytotoxicity control for TCR NF-kB inhibitor project, luminescence, T-cell screen hits (AID 489026); type: functional, cell-based;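 further: cells exposed to compound about 14 hours before the viability readout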
[7] = control 3'UTR Renilla luciferase suppression, dose response, counter-screen for Shn3 inhibitor project, cell-based, Clone20-Shn3RL, cherry-picked (AID 624133); type: functional
[8] = Shn3 3'UTR reporter inhibitors, dose response, cell-based, Clone20 osteoblasts, firefly luciferase, cherry-picked (AID 624132); type: functional;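 further: firefly luciferase luminescence from reporter carrying the Shn3 3'UTR in osteoblasts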
[9] = biological target: T3, Tyrosine-protein phosphatase non-receptor type 7 (Homo sapiens, UniProt P35236); type: functional
T3 sequence (P35236 whole entry): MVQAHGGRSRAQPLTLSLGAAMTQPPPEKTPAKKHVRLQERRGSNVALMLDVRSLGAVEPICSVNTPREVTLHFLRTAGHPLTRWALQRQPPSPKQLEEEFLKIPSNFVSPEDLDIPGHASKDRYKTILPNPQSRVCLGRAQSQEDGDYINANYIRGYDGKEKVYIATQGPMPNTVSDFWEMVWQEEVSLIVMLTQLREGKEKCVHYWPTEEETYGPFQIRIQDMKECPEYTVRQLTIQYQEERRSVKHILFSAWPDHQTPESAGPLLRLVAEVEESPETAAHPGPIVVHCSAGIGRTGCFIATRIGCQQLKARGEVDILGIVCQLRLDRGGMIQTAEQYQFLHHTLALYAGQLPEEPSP

[10] = biological target: T4, Tyrosine-protein phosphatase non-receptor type 22 (Homo sapiens, UniProt Q9Y2R2); type: functional
T4 sequence (Q9Y2R2 whole entry): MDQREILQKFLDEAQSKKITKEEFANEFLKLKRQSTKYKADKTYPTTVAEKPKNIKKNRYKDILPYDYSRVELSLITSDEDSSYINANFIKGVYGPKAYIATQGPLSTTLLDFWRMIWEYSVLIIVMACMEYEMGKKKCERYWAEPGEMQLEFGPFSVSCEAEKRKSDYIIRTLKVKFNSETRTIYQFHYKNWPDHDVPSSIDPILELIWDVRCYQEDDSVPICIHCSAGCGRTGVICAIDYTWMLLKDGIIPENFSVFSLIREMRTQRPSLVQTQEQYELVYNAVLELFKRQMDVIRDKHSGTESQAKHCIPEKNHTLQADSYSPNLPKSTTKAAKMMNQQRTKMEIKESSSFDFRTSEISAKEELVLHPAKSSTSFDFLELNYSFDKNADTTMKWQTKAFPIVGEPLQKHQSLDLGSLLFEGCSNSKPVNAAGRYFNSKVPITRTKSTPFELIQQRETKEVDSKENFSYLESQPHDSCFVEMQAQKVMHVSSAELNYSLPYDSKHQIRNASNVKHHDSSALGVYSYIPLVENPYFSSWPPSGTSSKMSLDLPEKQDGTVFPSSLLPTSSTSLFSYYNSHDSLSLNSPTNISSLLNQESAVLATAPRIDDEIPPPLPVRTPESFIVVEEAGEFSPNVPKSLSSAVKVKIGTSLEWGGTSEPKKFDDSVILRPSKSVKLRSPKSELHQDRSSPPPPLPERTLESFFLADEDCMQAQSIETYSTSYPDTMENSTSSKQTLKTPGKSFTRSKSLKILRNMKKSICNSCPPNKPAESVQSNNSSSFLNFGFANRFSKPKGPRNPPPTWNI

[11] = biological target: T4, Tyrosine-protein phosphatase non-receptor type 22; type: functional; remark: listed apart in the source
[12] = biological target: T5, Rac GTPase-activating protein 1 (Homo sapiens, UniProt Q9H0H5); experiment: MgcRacGAP GTPase-activating activity inhibitors, confirmation, biochemical, ADP Hunter fluorescence, primary and confirmatory (AID 624330); type: functional
T5 sequence (Q9H0H5 whole entry): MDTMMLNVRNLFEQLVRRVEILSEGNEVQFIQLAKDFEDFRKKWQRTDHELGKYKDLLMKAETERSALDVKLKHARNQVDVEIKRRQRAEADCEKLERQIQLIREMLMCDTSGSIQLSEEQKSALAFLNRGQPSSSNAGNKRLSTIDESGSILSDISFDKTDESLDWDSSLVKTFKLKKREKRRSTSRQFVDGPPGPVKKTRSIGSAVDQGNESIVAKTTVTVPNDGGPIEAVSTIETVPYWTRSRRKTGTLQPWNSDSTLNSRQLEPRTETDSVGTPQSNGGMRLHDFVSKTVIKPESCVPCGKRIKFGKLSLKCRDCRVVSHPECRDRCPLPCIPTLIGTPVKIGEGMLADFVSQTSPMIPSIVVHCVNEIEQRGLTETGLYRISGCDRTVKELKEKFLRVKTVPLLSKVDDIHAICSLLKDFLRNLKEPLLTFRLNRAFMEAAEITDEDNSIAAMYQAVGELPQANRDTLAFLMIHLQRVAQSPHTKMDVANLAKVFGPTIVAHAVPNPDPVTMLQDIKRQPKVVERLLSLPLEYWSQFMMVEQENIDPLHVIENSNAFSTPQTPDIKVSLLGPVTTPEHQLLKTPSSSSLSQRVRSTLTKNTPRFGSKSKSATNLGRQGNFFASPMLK

[13] = inhibitors of intracellular T. cruzi replication, confirmation, NIH3T3 host cells, beta-gal luminescence (AID 2044); type: functional, cell-based;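 further: intracellular parasites grown in NIH/3T3 mouse fibroblasts as host cells; luminescent beta-galactosidase reporter signal from transgenic T. cruzi replicating inside host cells; inhibitors lower the luminescence signal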
Cytochrome P450 2D6 = Cytochrome P450 2D6 (Homo sapiens, UniProt P10635);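 further: CYP2D6 member of a cytochrome P450 panel assay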
[14] = biological target: T6, Orexin/Hypocretin receptor type 1 (Homo sapiens, UniProt O43613); experiment: Homogeneous Time Resolved Fluorescence (HTRF)-based cell-based high throughput dose response assay for antagonists of the orexin 1 receptor (OX1R; HCRTR1). [Related pubchem assays (depositor defined):AID434989, AID435008, AID463079, AID485270, AID492963, AID492964, AID492965, AID493232, AID504717, AID504718]; type: functional
T6 sequence (O43613 whole entry): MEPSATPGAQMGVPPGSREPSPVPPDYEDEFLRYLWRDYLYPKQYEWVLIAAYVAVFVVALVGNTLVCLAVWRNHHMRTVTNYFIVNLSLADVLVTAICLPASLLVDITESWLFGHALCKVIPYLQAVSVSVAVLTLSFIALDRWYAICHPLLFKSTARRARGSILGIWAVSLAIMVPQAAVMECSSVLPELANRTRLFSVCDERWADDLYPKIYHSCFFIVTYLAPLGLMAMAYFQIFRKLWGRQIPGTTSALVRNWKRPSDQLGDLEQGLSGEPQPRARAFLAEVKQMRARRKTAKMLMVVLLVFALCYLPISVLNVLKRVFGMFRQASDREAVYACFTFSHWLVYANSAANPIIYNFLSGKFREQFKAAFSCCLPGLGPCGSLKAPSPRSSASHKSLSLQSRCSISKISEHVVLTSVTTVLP

[15] = Counterscreen for antagonists of the orexin 1 receptor (OX1R; HCRTR1): Fluorescence-based cell-based high throughput dose response assay to identify antagonists of the parental CHO cell line. [Related pubchem assays (depositor defined):AID434989, AID435008, AID463079, AID485270, AID492963, AID492964, AID492965, AID493232, AID504699, AID504701]; type: functional
CHO-K1 = experiment: Counterscreen for antagonists of the orexin 1 receptor (OX1R; HCRTR1): Homogeneous time resolved fluorescence (HTRF)-based cell-based dose response assay to identify antagonists of the parental CHO-K1 cell line. [Related pubchem assays (depositor defined):AID434989, AID435008, AID463079, AID485270, AID492963, AID492964, AID492965, AID493232, AID504699, AID504701]; type: functional; conditions: Cricetulus griseus;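 further: potency for inhibition of ATP-stimulated IP1 production as antagonists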
[16] = biological target: T6, Orexin/Hypocretin receptor type 1; experiment: Fluorescence-based cell-based high throughput dose response assay for antagonists of the orexin 1 receptor (OX1R; HCRTR1). [Related pubchem assays (depositor defined):AID434989, AID435008, AID463079, AID485270, AID492963, AID492964, AID492965, AID493232, AID504717, AID504718]; type: functional
HEK293 [17] = experiment: cells; type: functional, cell-based; conditions: Homo sapiens
[18] = biological target: Nucleotide-binding oligomerization domain-containing protein 2 (Homo sapiens, UniProt Q9HC29); experiment: NOD2 signaling inhibitors, cell-based, luminescence, uHTS, HEK293 (AID 1566); type: functional
[19] = biological target: Nucleotide-binding oligomerization domain-containing protein 1 (Homo sapiens, UniProt Q9Y239); experiment: NOD1 signaling inhibitors, SAR follow-up, revised (AID 2333); type: functional
Tumor necrosis factor = Tumor necrosis factor (Homo sapiens, UniProt P01375); experiment: TNFa-triggered NF-kB activation inhibitors, SAR follow-up, cell-based, revised (AID 2337); type: functional
HEK293 [20] = experiment: cells; conditions: Homo sapiens
HEK293 [21] = experiment: cells; type: functional, cell-based; conditions: Homo sapiens; remark: listed apart in the source
HEK293 [22] = experiment: NOD2 signaling inhibitors in MDP-stimulated cells, cell-based, uHTS, luminescence (AID 2001); type: functional; conditions: Homo sapiens
HEK293 [23] = experiment: cells; type: functional, cell-based; conditions: Homo sapiens; remark: listed apart in the source
HEK293 [24] = experiment: NOD1 signaling inhibitors, primary screen, cell-based, luminescence, uHTS (AID 1578); type: functional; conditions: Homo sapiens

Nucleotide-binding oligomerization domain-containing protein 1, sequence (Q9Y239 whole entry, the tested form may be a part): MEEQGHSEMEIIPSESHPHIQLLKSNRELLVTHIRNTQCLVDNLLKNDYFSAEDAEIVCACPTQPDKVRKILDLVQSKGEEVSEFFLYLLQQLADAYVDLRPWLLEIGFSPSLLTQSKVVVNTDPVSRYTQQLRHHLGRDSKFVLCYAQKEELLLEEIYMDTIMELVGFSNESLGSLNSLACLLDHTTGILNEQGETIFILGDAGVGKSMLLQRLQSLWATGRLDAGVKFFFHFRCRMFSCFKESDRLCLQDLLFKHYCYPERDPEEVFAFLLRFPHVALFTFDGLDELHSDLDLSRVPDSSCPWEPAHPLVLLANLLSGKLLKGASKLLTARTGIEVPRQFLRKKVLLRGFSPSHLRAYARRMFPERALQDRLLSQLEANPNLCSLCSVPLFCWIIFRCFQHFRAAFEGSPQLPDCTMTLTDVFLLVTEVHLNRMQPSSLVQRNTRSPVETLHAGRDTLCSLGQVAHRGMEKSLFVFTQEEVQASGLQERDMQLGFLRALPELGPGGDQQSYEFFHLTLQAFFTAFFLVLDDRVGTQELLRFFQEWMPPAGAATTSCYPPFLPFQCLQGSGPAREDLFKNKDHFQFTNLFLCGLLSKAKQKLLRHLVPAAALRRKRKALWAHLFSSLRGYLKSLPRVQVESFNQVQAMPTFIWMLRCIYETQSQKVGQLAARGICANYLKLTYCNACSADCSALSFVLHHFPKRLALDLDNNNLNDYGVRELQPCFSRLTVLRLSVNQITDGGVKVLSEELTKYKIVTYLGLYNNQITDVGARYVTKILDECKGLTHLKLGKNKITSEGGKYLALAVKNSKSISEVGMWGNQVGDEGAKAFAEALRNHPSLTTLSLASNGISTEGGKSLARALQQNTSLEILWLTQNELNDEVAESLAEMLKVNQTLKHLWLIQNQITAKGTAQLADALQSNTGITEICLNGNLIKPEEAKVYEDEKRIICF
Tumor necrosis factor, sequence (P01375 whole entry): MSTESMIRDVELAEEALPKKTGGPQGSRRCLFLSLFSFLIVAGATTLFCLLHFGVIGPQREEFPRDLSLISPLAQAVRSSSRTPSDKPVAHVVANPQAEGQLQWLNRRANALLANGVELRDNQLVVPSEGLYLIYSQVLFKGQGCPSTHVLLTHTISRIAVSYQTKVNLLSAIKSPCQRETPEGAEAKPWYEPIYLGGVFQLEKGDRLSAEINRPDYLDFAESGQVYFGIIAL
Nucleotide-binding oligomerization domain-containing protein 2, sequence (Q9HC29 whole entry, the tested form may be a part): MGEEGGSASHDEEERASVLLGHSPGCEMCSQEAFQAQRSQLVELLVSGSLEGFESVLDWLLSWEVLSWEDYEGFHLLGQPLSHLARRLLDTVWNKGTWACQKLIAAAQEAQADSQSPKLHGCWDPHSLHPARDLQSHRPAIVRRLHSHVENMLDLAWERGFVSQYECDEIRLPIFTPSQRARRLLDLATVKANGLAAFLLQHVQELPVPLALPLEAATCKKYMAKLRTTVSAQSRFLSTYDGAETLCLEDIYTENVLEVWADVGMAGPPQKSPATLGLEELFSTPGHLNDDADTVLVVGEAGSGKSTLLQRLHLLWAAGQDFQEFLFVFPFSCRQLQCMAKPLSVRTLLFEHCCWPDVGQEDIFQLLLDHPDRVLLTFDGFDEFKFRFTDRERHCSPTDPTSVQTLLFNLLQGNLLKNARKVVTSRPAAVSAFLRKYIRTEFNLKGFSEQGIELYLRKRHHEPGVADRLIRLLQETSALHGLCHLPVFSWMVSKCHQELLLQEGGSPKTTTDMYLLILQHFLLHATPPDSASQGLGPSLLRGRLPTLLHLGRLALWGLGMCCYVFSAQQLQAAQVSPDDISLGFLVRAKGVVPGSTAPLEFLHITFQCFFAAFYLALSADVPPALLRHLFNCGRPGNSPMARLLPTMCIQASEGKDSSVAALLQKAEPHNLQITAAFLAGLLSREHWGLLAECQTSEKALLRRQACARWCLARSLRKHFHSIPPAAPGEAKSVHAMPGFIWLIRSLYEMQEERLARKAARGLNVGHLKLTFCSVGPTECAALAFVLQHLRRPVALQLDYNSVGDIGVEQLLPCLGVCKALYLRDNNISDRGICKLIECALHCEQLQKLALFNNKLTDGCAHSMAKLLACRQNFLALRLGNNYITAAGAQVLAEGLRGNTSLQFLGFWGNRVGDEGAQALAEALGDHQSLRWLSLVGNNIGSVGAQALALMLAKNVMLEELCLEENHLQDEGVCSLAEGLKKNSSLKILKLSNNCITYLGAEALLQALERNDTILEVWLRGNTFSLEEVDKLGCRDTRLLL
SUMO-activating enzyme, sequence (Q9UBE0 whole entry): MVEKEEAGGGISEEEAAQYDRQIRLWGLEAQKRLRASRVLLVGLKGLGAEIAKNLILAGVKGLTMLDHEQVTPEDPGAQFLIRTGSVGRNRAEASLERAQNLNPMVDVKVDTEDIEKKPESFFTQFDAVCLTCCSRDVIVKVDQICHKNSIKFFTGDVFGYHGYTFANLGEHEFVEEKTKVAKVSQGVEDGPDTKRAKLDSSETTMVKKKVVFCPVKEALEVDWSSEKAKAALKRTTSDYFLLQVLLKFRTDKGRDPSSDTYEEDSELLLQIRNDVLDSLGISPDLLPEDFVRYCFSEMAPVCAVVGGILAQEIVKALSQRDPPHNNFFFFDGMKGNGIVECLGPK
SUMO-activating enzyme, sequence (Q9UBT2 whole entry): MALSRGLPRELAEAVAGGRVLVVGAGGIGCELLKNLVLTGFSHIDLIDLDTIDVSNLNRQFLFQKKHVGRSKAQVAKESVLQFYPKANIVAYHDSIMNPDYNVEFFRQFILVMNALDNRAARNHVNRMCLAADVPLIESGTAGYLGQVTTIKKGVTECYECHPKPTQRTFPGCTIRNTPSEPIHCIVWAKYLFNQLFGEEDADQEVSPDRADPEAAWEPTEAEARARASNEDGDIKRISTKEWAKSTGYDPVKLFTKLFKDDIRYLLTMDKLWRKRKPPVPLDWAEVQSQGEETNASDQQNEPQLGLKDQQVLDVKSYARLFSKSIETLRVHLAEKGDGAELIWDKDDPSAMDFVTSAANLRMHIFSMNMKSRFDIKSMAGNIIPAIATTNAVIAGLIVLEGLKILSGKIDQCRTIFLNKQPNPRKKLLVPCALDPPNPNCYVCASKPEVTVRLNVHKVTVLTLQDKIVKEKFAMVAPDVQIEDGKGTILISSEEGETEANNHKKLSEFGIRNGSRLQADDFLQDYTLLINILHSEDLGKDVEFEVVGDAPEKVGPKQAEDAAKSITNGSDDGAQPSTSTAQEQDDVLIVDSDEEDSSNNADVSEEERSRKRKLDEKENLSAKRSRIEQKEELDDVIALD
Cytochrome P450 2D6, sequence (P10635 whole entry): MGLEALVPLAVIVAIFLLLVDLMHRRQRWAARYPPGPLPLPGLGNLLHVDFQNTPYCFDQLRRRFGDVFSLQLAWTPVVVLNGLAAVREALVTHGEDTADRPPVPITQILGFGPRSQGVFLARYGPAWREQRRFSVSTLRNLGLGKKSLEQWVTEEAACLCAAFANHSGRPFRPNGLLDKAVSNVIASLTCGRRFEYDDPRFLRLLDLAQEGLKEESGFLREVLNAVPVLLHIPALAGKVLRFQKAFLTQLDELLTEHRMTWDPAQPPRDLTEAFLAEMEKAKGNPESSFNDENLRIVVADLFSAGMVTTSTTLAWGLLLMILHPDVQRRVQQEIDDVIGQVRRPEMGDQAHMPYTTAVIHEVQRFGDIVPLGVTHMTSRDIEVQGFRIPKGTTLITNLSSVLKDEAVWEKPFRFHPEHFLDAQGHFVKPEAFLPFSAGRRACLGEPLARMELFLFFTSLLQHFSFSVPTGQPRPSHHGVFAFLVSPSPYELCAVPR

C/C(=N\NC(=O)CNc1cccc2ccccc12)c1ccccc1
IC50 [1]: > 50 µM (not active)
IC50 (SUMO-activating enzyme): > 100 µM (inactive)

CCC1CCCCN1C(=O)c1cc(COc2ccc3ncccc3c2)on1 (configuration not stated)
AC50 (INS1): 1.89 µM (active)
IC50 [2]: 4.58 µM (active)
IC50 [3]: 0.339 µM (active)
AC50 [4]: 2.06 µM (active)
IC50 [5]: 0.444 µM (active)
IC50 [6]: > 80 µM (inactive)
AC50 [7]: 1.15 µM (active)
AC50 [8]: 0.46 µM (active)

O=C(Nc1nccs1)c1ccc(S(=O)(=O)NCc2cccs2)cc1
IC50 [9]: > 79.4 µM (inactive)
IC50 [10]: > 79.4 µM (inactive)
IC50 [11]: > 79.4 µM (inactive)

Cc1cc2nc(C)n(CCCNC(=O)Nc3cccc4ccccc34)c2cc1C
IC50 [3]: 1.99 µM (active)
AC50 [4]: 28.5 µM (active)
IC50 [5]: 1.7 µM (active)
AC50 [7]: 6.38 µM (active)
AC50 [8]: 3.19 µM (active)

Cc1[nH]c2ccccc2c1N=Nc1c(C)n(C)n(-c2ccccc2)c1=O
IC50 [12]: 41.1 µM (active)
IC50 [9]: > 79.4 µM (inactive)
IC50 [10]: > 79.4 µM (inactive)
IC50 [11]: > 79.4 µM (inactive)

NC(=S)N/N=C/c1ccccc1OCc1cccc(Cl)c1
EC50 [13]: 0.323 µM (active)
AC50 (Cytochrome P450 2D6): inconclusive
IC50 [14]: 2.71 µM (active)
IC50 [15]: > 49.7 µM (inactive)
IC50 (CHO-K1): > 66.2 µM (inactive)
IC50 [16]: 7.74 µM (active)

Cc1onc(-c2ccccc2)c1C(=O)Nc1ncc([N+](=O)[O-])s1
IC50 (HEK293 [17]): > 20 µM (inactive)
EC50 [18]: 2.62 µM (active)
IC50 [19]: 4.88 µM (active)
IC50 (Tumor necrosis factor): 6.31 µM (active)
IC50 (HEK293 [20]): 18 µM (active)
IC50 (HEK293 [21]): 15.8 µM (active)
IC50 (HEK293 [22]): 8.73 µM (active)
IC50 (HEK293 [23]): > 20 µM (inactive)
EC50 (HEK293 [24]): 2.25 µM (active)
